Assay results as given in PubChem BioAssay (NCI).
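Compound exposure: 48 hours, 5 concentrations, 96-well plates. Abbreviation: GI50, concentration required for 50% inhibition of growth. TGI is the concentration that stops growth completely.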

Assays:
Assay in all cases: inhibition of tumour cell growth, NCI panel, 48 h
786-0 renal = system: 786-0 renal
A498 renal = system: A498 renal
A549 NSCLC = system: A549 NSCLC
ACHN renal = system: ACHN renal
BT-549 breast = system: BT-549 breast
CAKI-1 renal = system: CAKI-1 renal
CCRF-CEM leukemia = system: CCRF-CEM leukemia
COLO 205 colon = system: COLO 205 colon
DU-145 prostate = system: DU-145 prostate
EKVX NSCLC = system: EKVX NSCLC
HCC-2998 colon = system: HCC-2998 colon
HCT-116 colon = system: HCT-116 colon
HCT-15 colon = system: HCT-15 colon
HL-60(TB) leukemia = system: HL-60(TB) leukemia
HOP-62 NSCLC = system: HOP-62 NSCLC
HOP-92 NSCLC = system: HOP-92 NSCLC
HS 578T breast = system: HS 578T breast
HT29 colon = system: HT29 colon
IGROV1 ovarian = system: IGROV1 ovarian
K-562 leukemia = system: K-562 leukemia
KM12 colon = system: KM12 colon
LOX IMVI melanoma = system: LOX IMVI melanoma
M14 melanoma = system: M14 melanoma
MALME-3M melanoma = system: MALME-3M melanoma
MCF7 breast = system: MCF7 breast
MDA-MB-231 breast = system: MDA-MB-231 breast
MDA-MB-435 = system: MDA-MB-435
MOLT-4 leukemia = system: MOLT-4 leukemia
NCI-H226 lung = system: NCI-H226 lung
NCI-H23 lung = system: NCI-H23 lung
NCI-H460 lung = system: NCI-H460 lung
NCI-H522 lung = system: NCI-H522 lung
NCI/ADR-RES ovarian = system: NCI/ADR-RES ovarian
OVCAR-3 ovarian = system: OVCAR-3 ovarian
OVCAR-4 ovarian = system: OVCAR-4 ovarian
OVCAR-5 ovarian = system: OVCAR-5 ovarian
OVCAR-8 ovarian = system: OVCAR-8 ovarian
PC-3 prostate = system: PC-3 prostate
RPMI-8226 leukemia = system: RPMI-8226 leukemia
RXF 393 renal = system: RXF 393 renal
SF-268 CNS = system: SF-268 CNS
SF-295 CNS = system: SF-295 CNS
SF-539 CNS = system: SF-539 CNS
SK-MEL-2 melanoma = system: SK-MEL-2 melanoma
SK-MEL-28 melanoma = system: SK-MEL-28 melanoma
SK-MEL-5 melanoma = system: SK-MEL-5 melanoma
SK-OV-3 ovarian = system: SK-OV-3 ovarian
SN12C renal = system: SN12C renal
SNB-19 CNS = system: SNB-19 CNS
SNB-75 CNS = system: SNB-75 CNS
SR leukemia = system: SR leukemia
SW-620 colon = system: SW-620 colon
T-47D breast = system: T-47D breast
TK-10 renal = system: TK-10 renal
U251 CNS = system: U251 CNS
UACC-257 melanoma = system: UACC-257 melanoma
UACC-62 melanoma = system: UACC-62 melanoma
UO-31 renal = system: UO-31 renal

SMILES: Cc1c(-c2c(-c3ccc(F)o3)sc3ncnc(O[C@H](Cc4ccccc4OCc4ccnn4CC(F)(F)F)C(=O)O)c23)ccc(OCCN2CCN(C)CC2)c1Cl
- GI50 (786-0 renal): 3.97 µM
- TGI (786-0 renal): 8.33 µM
- GI50 (A498 renal): 3.03 µM
- TGI (A498 renal): 9.6 µM
- GI50 (A549 NSCLC): 13.4 µM
- TGI (A549 NSCLC): 26.9 µM
- GI50 (ACHN renal): 6.46 µM
- TGI (ACHN renal): 19 µM
- GI50 (BT-549 breast): 2.13 µM
- TGI (BT-549 breast): 5.65 µM
- GI50 (CAKI-1 renal): 6.21 µM
- TGI (CAKI-1 renal): 19.2 µM
- GI50 (CCRF-CEM leukemia): 0.318 µM
- TGI (CCRF-CEM leukemia): 9.49 µM
- GI50 (COLO 205 colon): 4.29 µM
- TGI (COLO 205 colon): 9.26 µM
- GI50 (DU-145 prostate): 2.33 µM
- TGI (DU-145 prostate): 5.36 µM
- GI50 (EKVX NSCLC): 4.12 µM
- TGI (EKVX NSCLC): 14.2 µM
- GI50 (HCC-2998 colon): 3.48 µM
- TGI (HCC-2998 colon): 7.57 µM
- GI50 (HCT-116 colon): 3.9 µM
- TGI (HCT-116 colon): 9.23 µM
- GI50 (HCT-15 colon): 6.49 µM
- TGI (HCT-15 colon): 20.1 µM
- GI50 (HL-60(TB) leukemia): 0.0173 µM
- TGI (HL-60(TB) leukemia): 0.195 µM
- GI50 (HOP-62 NSCLC): 5.31 µM
- TGI (HOP-62 NSCLC): 14.3 µM
- GI50 (HOP-92 NSCLC): 4.57 µM
- TGI (HOP-92 NSCLC): 9.7 µM
- GI50 (HS 578T breast): 1.53 µM
- TGI (HS 578T breast): 9.42 µM
- GI50 (HT29 colon): 4.54 µM
- TGI (HT29 colon): 9.41 µM
- GI50 (IGROV1 ovarian): 5.68 µM
- TGI (IGROV1 ovarian): 14.8 µM
- GI50 (K-562 leukemia): 3.71 µM
- TGI (K-562 leukemia): 14.5 µM
- GI50 (KM12 colon): 4 µM
- TGI (KM12 colon): 7.99 µM
- GI50 (LOX IMVI melanoma): 3.03 µM
- TGI (LOX IMVI melanoma): 6.8 µM
- GI50 (M14 melanoma): 1.32 µM
- TGI (M14 melanoma): 5.83 µM
- GI50 (MALME-3M melanoma): 3.37 µM
- TGI (MALME-3M melanoma): 7.52 µM
- GI50 (MCF7 breast): 0.375 µM
- TGI (MCF7 breast): 4.61 µM
- GI50 (MDA-MB-231 breast): 3.8 µM
- TGI (MDA-MB-231 breast): 7.84 µM
- GI50 (MDA-MB-435): 1.89 µM
- TGI (MDA-MB-435): 6.37 µM
- GI50 (MOLT-4 leukemia): 0.108 µM
- TGI (MOLT-4 leukemia): 4.71 µM
- GI50 (NCI-H226 lung): 5.89 µM
- TGI (NCI-H226 lung): 15.5 µM
- GI50 (NCI-H23 lung): 2.59 µM
- TGI (NCI-H23 lung): 7.6 µM
- GI50 (NCI-H460 lung): 4.17 µM
- TGI (NCI-H460 lung): 10 µM
- GI50 (NCI-H522 lung): 0.148 µM
- TGI (NCI-H522 lung): 4.58 µM
- GI50 (NCI/ADR-RES ovarian): 15.5 µM
- TGI (NCI/ADR-RES ovarian): 33.4 µM
- GI50 (OVCAR-3 ovarian): 3.82 µM
- TGI (OVCAR-3 ovarian): 7.67 µM
- GI50 (OVCAR-4 ovarian): 4.86 µM
- TGI (OVCAR-4 ovarian): 17.8 µM
- GI50 (OVCAR-5 ovarian): 4.81 µM
- TGI (OVCAR-5 ovarian): 14.8 µM
- GI50 (OVCAR-8 ovarian): 5.82 µM
- TGI (OVCAR-8 ovarian): 15.5 µM
- GI50 (PC-3 prostate): 3.16 µM
- TGI (PC-3 prostate): 7.28 µM
- GI50 (RPMI-8226 leukemia): < 0.0147 µM
- TGI (RPMI-8226 leukemia): 0.261 µM
- GI50 (RXF 393 renal): 2.77 µM
- TGI (RXF 393 renal): 6.1 µM
- GI50 (SF-268 CNS): 4.46 µM
- TGI (SF-268 CNS): 11.4 µM
- GI50 (SF-295 CNS): 3.55 µM
- TGI (SF-295 CNS): 7.55 µM
- GI50 (SF-539 CNS): 2.89 µM
- TGI (SF-539 CNS): 6.27 µM
- GI50 (SK-MEL-2 melanoma): 0.03 µM
- TGI (SK-MEL-2 melanoma): 0.097 µM
- GI50 (SK-MEL-28 melanoma): 3.84 µM
- TGI (SK-MEL-28 melanoma): 7.82 µM
- GI50 (SK-MEL-5 melanoma): 3.13 µM
- TGI (SK-MEL-5 melanoma): 6.25 µM
- GI50 (SK-OV-3 ovarian): 5.74 µM
- TGI (SK-OV-3 ovarian): 14.8 µM
- GI50 (SN12C renal): 4.05 µM
- TGI (SN12C renal): 9.62 µM
- GI50 (SNB-19 CNS): 4.7 µM
- TGI (SNB-19 CNS): 12.9 µM
- GI50 (SNB-75 CNS): 1.92 µM
- TGI (SNB-75 CNS): 5.61 µM
- GI50 (SR leukemia): 0.162 µM
- TGI (SR leukemia): 2.01 µM
- GI50 (SW-620 colon): 5.88 µM
- TGI (SW-620 colon): 17.2 µM
- GI50 (T-47D breast): 5.14 µM
- TGI (T-47D breast): 16.3 µM
- GI50 (TK-10 renal): 5.31 µM
- TGI (TK-10 renal): 16.2 µM
- GI50 (U251 CNS): 4.59 µM
- TGI (U251 CNS): 10.7 µM
- GI50 (UACC-257 melanoma): 5.24 µM
- TGI (UACC-257 melanoma): 12.9 µM
- GI50 (UACC-62 melanoma): 0.249 µM
- TGI (UACC-62 melanoma): 3.13 µM
- GI50 (UO-31 renal): 6.25 µM
- TGI (UO-31 renal): 18.6 µM
